Measurements: patent publication US20120184517A1, “TREATMENT OF DISEASES WITH ALTERED SMOOTH MUSCLE CONTRACTILITY” (priority 2009, published 2012)

How the values were obtained:
BKCa channel [1] = target: T1, BKCa channel (Homo sapiens, UniProt Q12791); details: cited from earlier work
[2] = not told; cited from earlier work
tracheal rings = assay: Isoproterenol-induced relaxation of tracheal rings from PBS- and OVA-sensitized animals; type: cell-based, murine; details: no rottlerin
Protocol: The isoproterenol-induced relaxation of tracheal rings from OVA-sensitized asthmatic animals was also tested. After induction of asthma, tracheal rings were removed and mounted on the myograph. […] At the conclusion of the experiment, each tracheal ring was exposed to methacholine to ensure viability of the ring and equivalent constriction.
After induction of asthma, tracheal rings were removed and mounted on the myograph. […] The ISO-relaxation curve was shifted downward and to the right, with the maximal relaxation response reduced to only ˜25% from more than 60%.

[3] = target: T2, BK currents in tracheal ASM cells (Mus musculus, UniProt Q08460); assay: Perforated whole cell voltage clamp of acutely isolated tracheal ASM, outward K+ current; type: cell-based; details: 0.5 μM ISO
T2 construct: The effect of ISO on BK currents in acutely isolated tracheal ASM was also determined; endogenous in cells; host or cells: acutely isolated tracheal airway smooth muscle cells
T2 sequence (Q08460 whole entry): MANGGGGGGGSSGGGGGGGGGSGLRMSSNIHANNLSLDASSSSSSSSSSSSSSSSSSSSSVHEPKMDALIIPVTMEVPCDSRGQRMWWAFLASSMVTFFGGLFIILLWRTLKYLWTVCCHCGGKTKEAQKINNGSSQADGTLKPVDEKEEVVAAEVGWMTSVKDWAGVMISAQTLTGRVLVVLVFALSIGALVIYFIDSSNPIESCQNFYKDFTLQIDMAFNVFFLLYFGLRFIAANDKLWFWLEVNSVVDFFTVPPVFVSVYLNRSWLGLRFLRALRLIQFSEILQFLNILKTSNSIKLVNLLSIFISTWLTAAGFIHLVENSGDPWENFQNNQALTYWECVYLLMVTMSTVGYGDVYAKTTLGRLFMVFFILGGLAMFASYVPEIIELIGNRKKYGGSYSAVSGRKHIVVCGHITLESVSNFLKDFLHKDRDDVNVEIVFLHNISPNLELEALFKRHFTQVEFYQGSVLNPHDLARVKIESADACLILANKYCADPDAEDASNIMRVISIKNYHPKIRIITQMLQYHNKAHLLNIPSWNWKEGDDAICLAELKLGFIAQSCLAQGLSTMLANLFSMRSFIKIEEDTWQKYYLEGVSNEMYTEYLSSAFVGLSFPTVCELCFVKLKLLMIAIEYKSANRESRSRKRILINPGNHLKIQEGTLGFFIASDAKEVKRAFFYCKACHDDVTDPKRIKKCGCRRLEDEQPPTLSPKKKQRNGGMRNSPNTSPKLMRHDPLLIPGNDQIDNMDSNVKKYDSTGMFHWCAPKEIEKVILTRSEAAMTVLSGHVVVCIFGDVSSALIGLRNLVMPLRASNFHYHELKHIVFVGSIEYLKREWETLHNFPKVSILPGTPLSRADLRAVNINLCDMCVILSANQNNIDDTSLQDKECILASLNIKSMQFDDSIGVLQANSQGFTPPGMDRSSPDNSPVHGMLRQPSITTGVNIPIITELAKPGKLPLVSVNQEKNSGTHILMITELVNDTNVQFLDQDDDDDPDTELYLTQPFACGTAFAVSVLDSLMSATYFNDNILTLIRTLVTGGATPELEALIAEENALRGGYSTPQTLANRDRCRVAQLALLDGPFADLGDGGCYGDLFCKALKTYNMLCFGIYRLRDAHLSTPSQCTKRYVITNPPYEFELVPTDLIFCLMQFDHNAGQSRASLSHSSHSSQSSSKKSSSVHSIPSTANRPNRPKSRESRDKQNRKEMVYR
T2 sequence (Q8CAE3 whole entry partner): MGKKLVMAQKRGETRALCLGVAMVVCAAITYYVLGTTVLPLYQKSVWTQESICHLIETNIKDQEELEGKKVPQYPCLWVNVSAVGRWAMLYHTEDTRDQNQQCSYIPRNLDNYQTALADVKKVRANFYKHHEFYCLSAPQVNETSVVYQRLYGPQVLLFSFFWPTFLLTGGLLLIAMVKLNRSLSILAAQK
Protocol: FIG. 23A is a diary plot of current recorded during repetitive stimulation by depolarizing ramps every 5 seconds to +200 mV from a holding potential of −20 mV. ISO and ISO+IbTX exposure are indicated by bars at bottom of plot. Dashed line indicates average control current.
The effect of ISO on BK currents in acutely isolated tracheal ASM was also determined. ASM cells were studied using perforated whole cell voltage clamp. After obtaining access, outward K^+ current was monitored using a 0.5 second ramp, from a holding potential of −20 mV to +200 mV. […] Under the conditions used, the majority of the outward K^+ current is conducted by the BK channel, as shown by IbTX-blockade (FIGS. 23A and 23B).

WT tracheal rings = assay: Isoproterenol-induced relaxation of WT tracheal rings on a myograph; type: cell-based, murine; details: pre-incubation with β2-AR antagonist 100 nM
Protocol: (n=4 each). Asterisk (*) indicates P<0.05 versus vehicle (DMSO). […] Cumulative dose-response curves of WT tracheal rings to isoproterenol in the absence and presence of 100 nM iberiotoxin (IbTX), a specific BK channel inhibitor. Values in graphs are means±standard deviation.
In this experiment, murine tracheal smooth muscle cells were acutely isolated and whole cell patch clamped as previously described (Zakharov, S. et al., (2005) J Biol Chem 280, 30882-30887).
To dissect which (or both) β-AR pathways are responsible for the effects, tracheal rings were pre-incubated with either β1-AR antagonist (CGP 20712A; 100 nM) or a β2-AR antagonist (ICI 118551; 100 nM) or vehicle (DMSO). […] To confirm that the isoproterenol-induced relaxation was dependent upon BK channel-induced hyperpolarization, IbTX, a specific inhibitor of the BK channel, was used.

[4] = target: T3, BKCa channel in porcine coronary artery cells (Sus scrofa, UniProt O18866); details: cited from earlier work
T3 construct: host or cells: porcine coronary artery cells
T3 sequence (O18866 whole entry): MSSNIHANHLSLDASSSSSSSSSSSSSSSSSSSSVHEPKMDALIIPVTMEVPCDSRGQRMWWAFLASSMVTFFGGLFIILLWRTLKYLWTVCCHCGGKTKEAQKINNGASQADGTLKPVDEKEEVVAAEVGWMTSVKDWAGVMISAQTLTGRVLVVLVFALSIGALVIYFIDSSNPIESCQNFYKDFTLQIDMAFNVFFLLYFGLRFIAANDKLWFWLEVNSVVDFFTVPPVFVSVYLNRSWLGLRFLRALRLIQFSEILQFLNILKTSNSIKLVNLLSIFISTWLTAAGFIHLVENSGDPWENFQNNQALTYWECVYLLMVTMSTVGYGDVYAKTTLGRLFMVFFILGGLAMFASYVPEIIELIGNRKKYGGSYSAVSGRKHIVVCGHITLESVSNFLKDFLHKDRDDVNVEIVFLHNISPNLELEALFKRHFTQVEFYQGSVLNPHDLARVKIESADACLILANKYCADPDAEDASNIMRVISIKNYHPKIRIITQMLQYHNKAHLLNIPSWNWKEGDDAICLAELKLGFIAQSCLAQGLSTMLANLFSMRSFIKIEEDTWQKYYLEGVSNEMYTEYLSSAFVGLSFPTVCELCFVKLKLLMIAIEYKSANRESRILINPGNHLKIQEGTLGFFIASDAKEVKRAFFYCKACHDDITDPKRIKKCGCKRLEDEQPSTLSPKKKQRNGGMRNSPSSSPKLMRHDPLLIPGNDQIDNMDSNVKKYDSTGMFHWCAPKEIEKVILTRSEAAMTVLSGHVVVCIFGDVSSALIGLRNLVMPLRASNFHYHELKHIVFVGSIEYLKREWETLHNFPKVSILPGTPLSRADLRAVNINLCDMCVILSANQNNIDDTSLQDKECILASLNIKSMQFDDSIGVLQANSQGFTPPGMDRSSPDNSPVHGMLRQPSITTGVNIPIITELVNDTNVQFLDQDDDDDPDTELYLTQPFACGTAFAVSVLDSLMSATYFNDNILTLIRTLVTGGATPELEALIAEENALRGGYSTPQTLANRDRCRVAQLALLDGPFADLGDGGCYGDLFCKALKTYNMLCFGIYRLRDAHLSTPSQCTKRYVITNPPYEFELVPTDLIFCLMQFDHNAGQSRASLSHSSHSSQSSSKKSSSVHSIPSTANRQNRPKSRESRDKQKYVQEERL

BKCa channel (mSlo) = target: T4, BKCa channel (mSlo) (Mus musculus, UniProt Q08460); assay: Whole cell patch clamp of HEK293 cells stably transfected with mSlo; type: cell-based, murine
T4 construct: expressed in transfected cells
T4 sequence (Q08460 whole entry): as the sequence (Q08460 whole entry) above
Protocol: FIGS. 4A and 4B show representative current traces from whole cell patches with 5 mM EGTA in patch pipette. […] Voltage steps are shown at the right of each tracing; note the different maximum voltage steps +200 mV (upper) vs. +120 mV (lower). […] FIG. 4C G-V curves were constructed for indicated conditions utilizing tail analysis (Xia, et al., Multiple regulatory sites in large-conductance calcium-activated potassium channels. Nature, 2002. 418(6900):880-4). Solid lines were fitted with Boltzmann function. […] FIGS. 4D and 4E show experiments studying stable mslo HEK293 cells in whole cell configuration with a pipette solution containing 5 mM EGTA (˜0 free Ca^2+).
Current in the diary plot in FIG. 5B represents maximal current in ramp protocol at +70 mV. Holding potential of ramp was −20 mV, with ramp from −30 mV to +180 mV over 500 ms. The G-V curve in FIG. 5C was generated from the tail analysis as described in FIG. 4.
(§1) Current was monitored with a ramp protocol; holding potential −60 mV, with ramp from −80 mV to +150 mV over 500 ms. […] Analysis was performed using tail analysis with normalization as previously described (Xia, et al., Multiple regulatory sites in large-conductance calcium-activated potassium channels. Nature, 2002. 418(6900):880-4). […] Identification of the BKCa channel was determined by conductance and inhibition by iberiotoxin and TEA. […] Murine femoral arterial rings were isolated and placed in a wire myograph. […] The figures shown are representative of 4 similar experiments. Error bars are standard error of the mean (SEM). Asterisk (*) indicates p<0.001.

2K-1C hypertensive rats = details: hypertensive rat model compared to controls; cited from earlier work
[5] = test system: porcine coronary myocytes; details: 30 μM; cited from earlier work
rat stroke models = details: in vivo; cited from earlier work
[6] = target: maxi-K potassium channels (Homo sapiens, UniProt Q12791); details: 50 nM intracellular Ca2+; cited from earlier work
maxi-K potassium channels, sequence (Q12791 whole entry): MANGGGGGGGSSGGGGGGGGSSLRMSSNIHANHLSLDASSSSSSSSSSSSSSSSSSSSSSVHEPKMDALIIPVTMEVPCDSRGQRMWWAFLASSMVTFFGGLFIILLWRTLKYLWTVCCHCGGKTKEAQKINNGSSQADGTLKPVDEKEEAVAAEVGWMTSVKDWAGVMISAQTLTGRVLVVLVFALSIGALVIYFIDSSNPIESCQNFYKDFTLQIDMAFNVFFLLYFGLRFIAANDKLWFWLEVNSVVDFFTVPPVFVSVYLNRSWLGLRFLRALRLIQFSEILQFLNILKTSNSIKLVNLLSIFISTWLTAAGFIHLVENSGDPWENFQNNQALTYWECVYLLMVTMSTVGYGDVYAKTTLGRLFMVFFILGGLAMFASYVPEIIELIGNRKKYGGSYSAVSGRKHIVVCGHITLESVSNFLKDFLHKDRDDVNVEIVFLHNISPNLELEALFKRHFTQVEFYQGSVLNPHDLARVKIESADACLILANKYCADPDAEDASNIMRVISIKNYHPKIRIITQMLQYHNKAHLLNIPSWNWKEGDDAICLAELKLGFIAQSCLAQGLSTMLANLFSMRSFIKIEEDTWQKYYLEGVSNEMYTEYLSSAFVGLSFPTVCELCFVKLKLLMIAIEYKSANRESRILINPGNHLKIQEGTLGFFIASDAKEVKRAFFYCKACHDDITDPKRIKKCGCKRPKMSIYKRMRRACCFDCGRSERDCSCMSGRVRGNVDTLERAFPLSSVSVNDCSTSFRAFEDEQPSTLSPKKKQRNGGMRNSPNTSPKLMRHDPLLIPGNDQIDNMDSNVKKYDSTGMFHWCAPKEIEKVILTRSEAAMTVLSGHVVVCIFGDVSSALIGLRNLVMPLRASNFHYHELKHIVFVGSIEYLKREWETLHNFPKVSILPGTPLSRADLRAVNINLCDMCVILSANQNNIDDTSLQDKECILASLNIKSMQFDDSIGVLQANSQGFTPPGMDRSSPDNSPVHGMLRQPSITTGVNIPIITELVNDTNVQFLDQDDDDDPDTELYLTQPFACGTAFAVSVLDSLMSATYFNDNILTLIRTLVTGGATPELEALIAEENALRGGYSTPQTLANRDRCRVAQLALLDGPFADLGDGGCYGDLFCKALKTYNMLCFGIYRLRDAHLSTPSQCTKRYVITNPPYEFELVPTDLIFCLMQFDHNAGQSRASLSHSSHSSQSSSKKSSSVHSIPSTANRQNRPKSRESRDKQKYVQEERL

[7] = test system: murine femoral arterial rings; type: cell-based
Protocol: as §1

dilation to forskolin = details: cited from earlier work
BKCa channel [8] = target: T1, BKCa channel; details: cytoplasmic side; cited from earlier work

T1 sequence (Q12791 whole entry): as above

CC1(C)C[C@@H](O)[C@]2(C)CC[C@]3(C)C(=CC[C@@H]4[C@@]5(C)CC[C@H](O[C@@H]6O[C@H](C(=O)O)[C@@H](O)[C@H](O)[C@H]6O[C@@H]6O[C@H](CO)[C@H](O)[C@H](O)[C@H]6O)[C@](C)(CO)[C@@H]5CC[C@]43C)[C@@H]2C1 [soyasaponin III]
BKCa channel activation (BKCa channel [1]): activate BKCa channels

dehydrosoyasaponin-I [DHS-I]
BKCa channel activation (BKCa channel [1]): activate BKCa channels | channel activity with α and β subunits co-expressed (BKCa channel [1]): increases channel activity | membrane permeability [2]: poor

C[C@@H]1O[C@@H](O[C@H]2[C@H](O[C@H]3[C@H](O[C@H]4CC[C@@]5(C)[C@@H](CC[C@]6(C)[C@@H]5CC=C5[C@@H]7CC(C)(C)C[C@@H](O)[C@]7(C)CC[C@]56C)[C@@]4(C)CO)O[C@H](C(=O)O)[C@@H](O)[C@@H]3O)O[C@H](CO)[C@H](O)[C@@H]2O)[C@H](O)[C@H](O)[C@H]1O [soyasaponin I]
BKCa channel activation (BKCa channel [1]): activate BKCa channels

CC(C)NCC(O)c1ccc(O)c(O)c1 (centres unmarked) [isoproterenol, reference compound]
maximal relaxation response to isoproterenol (tracheal rings; OVA-sensitized rings): ~25% | maximal relaxation response to isoproterenol (tracheal rings; control rings): more than 60% | increase of outward K+ current [3]: more than 50%

Cc1ccc(OCC(O)C(C)NC(C)C)c2c1CCC2 (centres unmarked) [ICI 118551, reference compound]
isoproterenol dose-response curve (WT tracheal rings): rightward shift in the dose-response curve

O=C(Nc1cccc(C(F)(F)F)c1)Nc1cc(Cl)ccc1O [NS1608]
effect at higher concentrations ([4]; 50 μM): inhibitory effect | concentration of maximum activation [4]: 5 to 10 µM | minimum effective concentration [4]: 0.5 µM

O=c1[nH]c2cc(C(F)(F)F)ccc2n1-c1cc(C(F)(F)F)ccc1O [NS-1619]
peak K+ current (BKCa channel (mSlo); NS-1619 10 μM extracellular): activated peak K^+ current | efficacy in mediating vascular relaxation (2K-1C hypertensive rats): diminished | intracellular Ca2+ concentration [5]: increase intracellular Ca^2+ concentration

COc1ccc(Cl)cc1[C@]1(F)C(=O)Nc2cc(C(F)(F)F)ccc21 [BMS-204352]
brain infarct size (rat stroke models): reduction in brain infarct size | effect on current [6]: almost no effect

CC[N+](CC)(CC)CC [TEA, tetraethylammonium, reference compound]
effect on rottlerin induced BKCa activation (BKCa channel (mSlo)): reversibly inhibited | effect on the rottlerin mediated effect [7]: inhibited

Ryanodine
reduction of dilation to forskolin (dilation to forskolin): 80%

C=C[C@]1(C)C=C2CC[C@@]3(O)C(C)(C)CC[C@H](O)[C@]3(C)C2CC1 (some centres unmarked) [Maxikdiol]
concentration of significant effect (BKCa channel [8]): 3 to 10 µM | threshold of channel activation (BKCa channel [8]): 1 µM | membrane permeability [2]: limited
